These are literature values, as cited in US12454539B2, “Controlled-delivery cromakalim prodrugs” (Qlaris Bio, Inc., priority 2019, dated 2025).

The subject of data set [1] is normotensive mouse model. The conditions noted are these: once daily dosing.
Data set [2] concerns KATP channels. The settings on record: membrane patches from rabbit mesenteric arterial smooth muscle cells, in the presence of ATP.
Data set [3] relates to isolated rat mesenteric lymph vessels. The conditions noted are these: increasing concentrations.

For the compound `CC1(C)Oc2ccc(C#N)cc2[C@@H](N2CCCC2=O)[C@@H]1OP(=O)(O)O` [CKLP1], the solubility in water entry is “more water soluble than levcromakalim”. The “intraocular pressure (IOP)” value in data set [1] was “lower intraocular pressure”.
`CC1(C)Oc2ccc(C#N)cc2C(N2CCCC2=O)C1O` (stereo not shown) [Cromakalim, cromakalim]: the “increase of open-state probability (Popen) of single KATP channels” value in data set [2] was “more than 9 fold”. Further, the “contractions of lymph vessels” value in data set [3] is “abolished the contractions of the vessels”.
